Experimental data reported in paper PMC10975828, “Screening for Active Compounds of Acorus calamus against SARS-CoV-2 Viral Protease and Mechanism Prediction” (Pharmaceuticals, 2024).
Where two headings read alike, the source gives them in different places.

Tests used:
SARS-CoV-2 Mpro = SARS-CoV-2 Mpro (Severe acute respiratory syndrome coronavirus 2, UniProt P0DTD1); test: SARS-CoV-2 Mpro inhibition assay (fluorescence, 96-well); assay type: biochemical; conditions: for percent inhibition at 5 µM: read-out: Inhibition at 5 μM (%); for IC50: Mpro 1 µM, inhibitor 0–20 µM, substrate 20 µM; for enzyme activity: at a concentration of 5 μM
SARS-CoV-2 PLpro = SARS-CoV-2 PLpro (Severe acute respiratory syndrome coronavirus 2, UniProt P0DTD1); test: SARS-CoV-2 PLpro inhibition assay (fluorescence, 96-well); assay type: biochemical; conditions: for percent inhibition of PLpro at 5 µM: read-out: Inhibition at 5 μM (%); for enzyme activity: 5 μM screening
PC12 cell = test system: PC12 cell; design: method as in PMID 28695650; conditions: previous studies; cited from earlier work
[1] = Mpro, inhibitor 5 μM, substrate 1 μM, triplicate, 25 °C
[2] = PLpro 1 µM, inhibitor 0–20 µM, substrate 20 µM, read-out: IC50
[3] = PLpro, inhibitor 5 μM, substrate 1 μM, triplicate, 25 °C

Row | Compound | percent inhibition at 5 µM (SARS-CoV-2 Mpro) [%] | percent inhibition of PLpro at 5 µM (SARS-CoV-2 PLpro) [%] | percent inhibition at 5 µM (SARS-CoV-2 Mpro; [1]) [%] | percent inhibition of PLpro at 5 µM (SARS-CoV-2 PLpro; [3]) [%] | other results
1 | CC(C)C1=CC[C@@]2(C)[C@H](O)CC[C@](C)(O)[C@@H]2C1 [Compound 16, oplodiol] | 78.2 ± 12.9 | 33.6 ± 2.46 |  |  | 
2 | C=C1CCC(C(C)C)C(O)C2C1CCC2(C)O (stereo not drawn) [Compound 3, 4β,6β-dihydroxy-1α,5β(H)-guai-10(14)-ene] | 74.7 ± 0.05 | 11.3 ± 0.55 |  |  | 
3 | CC1(O)CCC2C(C3C1CCC3(C)O)C2(C)C (single isomer, unassigned; (-)) [Compound 5, (-)-alloaromadendrane-3β,9β-diol] | 78.33 ± 0.25 | 14.4 ± 0.88 |  |  | 
4 | CC(C)C(=O)[C@@]1([C@H](C)CC(=O)O)CC[C@@H](C)C(=O)C1 [Compound 19, acoric acid] |  |  | 75.55 ± 0.24 | 7.9 ± 1.94 | IC50 (SARS-CoV-2 PLpro; [2]): 1450 ± 429 nM; enzyme activity (SARS-CoV-2 PLpro; PLpro): below 10%
5 | CC(C)C1CCC(C)(O)C2CCC(C)(O)C2C1=O [1R,5R,7S-guaiane-4R,10R-diol-6-one] |  |  |  |  | IC50 (SARS-CoV-2 PLpro; [2]): 386 ± 118 nM
6 | CC1=CC[C@H]2[C@](O)(C1)[C@@H](C(C)C)CC[C@@]2(C)O [Compound 10, 1β,7β(H)-3-cadinadiene-6α,10α-diol] | 85.6 ± 0.88 | 26.6 ± 3.38 |  |  | 
7 | CC1=CCC(C(C)C)C(O)C2C1CCC2(C)O (stereo not drawn) [Compound 2, 4β,6β-dihydroxy-1α,5β(H)-guai-9-ene] | 85.9 ± 0.61 | 14 ± 1.95 |  |  | 
8 | COc1cc(OC)c(OC)cc1C=O [Compound 24, 2,4,5-trimethoxybenzaldehyde] | 68.9 ± 0.71 | 9.54 ± 0.61 |  |  | IC50 (SARS-CoV-2 PLpro): 3920 ± 1290 nM; enzyme activity (SARS-CoV-2 PLpro; PLpro): below 10%
9 | CC1=C[C@H]2[C@@H](C(C)C)CC[C@@](C)(O)[C@]2(O)[C@@H](O)C1 [Compound 14, calamentriol D] | 81.9 ± 1.31 | 25.4 ± 1.43 |  |  | 
10 | CC(C)[C@@H]1CC[C@](C)(O)[C@@H]2CC[C@](C)(O)C[C@]21O [Compound 11, calamentriol B] | 80.5 ± 4.82 | 38.4 ± 7.04 |  |  | 
11 | CC(=O)C1CCC2C1C(C(C)C)CCC2(C)O (stereo not shown) [Compound 21, oplopanone A] | 83.3 ± 4.06 | 33.9 ± 5.49 |  |  | 
12 | CC(=O)CC[C@@]12CC(=O)O[C@]1(C(C)C)C(=O)C[C@@H]2C [Compound 18, neo-acorane A] |  |  | 31 ± 1.26 | 31.7 ± 8.07 | IC50 (SARS-CoV-2 Mpro): 630 ± 364 nM; enzyme activity (SARS-CoV-2 Mpro; Mpro): less than 50%; IC50 (SARS-CoV-2 PLpro; [2]): 1890 ± 375 nM
13 | CC1CC(=O)C(O)(C(C)C)C12CCC(C)(O)C(=O)C2 (stereo not shown) [Compound 20, calamusin D] | 79.7 ± 8.49 | 22.2 ± 3.58 |  |  | 
14 | C=C1CC[C@@H]2[C@@](O)(C1)[C@H](C(C)C)CC[C@@]2(C)O [Compound 6, isocalamendiol] |  |  | 80.31 ± 0.79 | 6.89 ± 1.65 | IC50 (SARS-CoV-2 PLpro; [2]): 1670 ± 496 nM; enzyme activity (SARS-CoV-2 PLpro; PLpro): below 10%
15 | CC(C)[C@@H]1CCC(=O)C2=C1[C@H](O)[C@](C)(O)CC2 [Compound 15, oxyphyllenodiols A] | 79.3 ± 10.4 | 35.3 ± 2.35 |  |  | 
16 | CC(C)C1CCC(C)(O)C2CCC(C)(O)C2C1O (stereo not shown) [Compound 4, teuclatriol] | 87.19 ± 0.31 | 11.8 ± 1.99 |  |  | 
17 | CC(C)C1CCC(C)(O)C2=C1C(=O)C(C)(O)CC2O (stereo not shown) [Compound 13, menecubebane B] |  |  | 41.1 ± 8.77 | 24.9 ± 4.91 | IC50 (SARS-CoV-2 Mpro): 1720 ± 394 nM; enzyme activity (SARS-CoV-2 Mpro; Mpro): less than 50%; IC50 (SARS-CoV-2 PLpro; [2]): 2530 ± 885 nM
18 | C=C1CC[C@@H]2[C@@](O)(C1)[C@H](C(C)C)CC[C@]2(C)O [Compound 7, calamendiol] |  |  | 78.58 ± 0.67 | 20.1 ± 2.96 | 
19 | CC(C)(O)C[C@H]1CC[C@@]2(C)[C@H](O)CC[C@](C)(O)[C@H]12 [Compound 22, bullatantriol] |  |  | 82.8 ± 1.58 | 10.6 ± 2.59 | IC50 (SARS-CoV-2 PLpro; [2]): 1260 ± 321 nM; enzyme activity (SARS-CoV-2 PLpro; PLpro): below 10%
20 | CC(C)C1CCC(C)(O)C2CCC(C)(O)C2C1=O [Compound 1, 1R,5R,7S-guaiane-4R,10R-diol-6-one] |  |  | 83.61 ± 0.01 | 6.41 ± 0.43 | enzyme activity (SARS-CoV-2 PLpro; PLpro): below 10%
21 | CC(C)C1CCC2(C)C(O)CCC(C)(O)C2C1O (stereo not shown) [Compound 17, ananosmin] | 74.6 ± 5.21 | 29.8 ± 1.54 |  |  | 
22 | calamusin H [Compound 8] |  |  |  | 14.2 ± 0.93 | percent inhibition (SARS-CoV-2 Mpro; [1]): 81.7 ± 6.15%
23 | COc1cc2ccnc3c2c(c1O)-c1c-3cccc(OC)c1=O [Compound 23, neo-tatarine] |  |  | 81.5 ± 3.65 | 6.71 ± 3.23 | IC50 (SARS-CoV-2 PLpro; [2]): 743 ± 187 nM; enzyme activity (SARS-CoV-2 PLpro; PLpro): below 10%; inhibitory effect on Aβ25-35-induced PC12 cell death (PC12 cell): significant inhibitory effect
24 | C=C1CC[C@@H]2[C@](C)(O)[C@H](O)C[C@H](C(C)C)[C@@]2(O)C1 [Compound 9, calamentriol A] | 82.9 ± 7.31 | 22.3 ± 4.83 |  |  | 
25 | CC(C)[C@H]1CC[C@](C)(O)[C@H]2CC[C@@](O)(CO)C[C@]12O [Compound 12, calamentriol C] | 70.9 ± 1.17 | 25.8 ± 2.25 |  |  | 
